In US12691101B2, “Compound and method for preventing or treating of respiratory diseases comprising the same as an active ingredient” (YONSEI UNIVERSITY, UNIVERSITY - INDUSTRY FOUNDATION (UIF), priority 2019, dated 2026):
Entries after “also recorded” stand apart in the source; their conditions may differ.

Experiments:
[1] = target: T1, human wild-type (WT)-pendrin (Homo sapiens, UniProt O43511); experiment: Pendrin-mediated Cl^−/HCO3^− exchange activity in CHO-K1 cells; assay type: cell-based; details: for inhibition of pendrin Cl^−/HCO3^− exchange activity: CHO-K1 cells, pretreated 10 minutes
T1 construct: expressed in transfected cells
T1 sequence (O43511 1-780): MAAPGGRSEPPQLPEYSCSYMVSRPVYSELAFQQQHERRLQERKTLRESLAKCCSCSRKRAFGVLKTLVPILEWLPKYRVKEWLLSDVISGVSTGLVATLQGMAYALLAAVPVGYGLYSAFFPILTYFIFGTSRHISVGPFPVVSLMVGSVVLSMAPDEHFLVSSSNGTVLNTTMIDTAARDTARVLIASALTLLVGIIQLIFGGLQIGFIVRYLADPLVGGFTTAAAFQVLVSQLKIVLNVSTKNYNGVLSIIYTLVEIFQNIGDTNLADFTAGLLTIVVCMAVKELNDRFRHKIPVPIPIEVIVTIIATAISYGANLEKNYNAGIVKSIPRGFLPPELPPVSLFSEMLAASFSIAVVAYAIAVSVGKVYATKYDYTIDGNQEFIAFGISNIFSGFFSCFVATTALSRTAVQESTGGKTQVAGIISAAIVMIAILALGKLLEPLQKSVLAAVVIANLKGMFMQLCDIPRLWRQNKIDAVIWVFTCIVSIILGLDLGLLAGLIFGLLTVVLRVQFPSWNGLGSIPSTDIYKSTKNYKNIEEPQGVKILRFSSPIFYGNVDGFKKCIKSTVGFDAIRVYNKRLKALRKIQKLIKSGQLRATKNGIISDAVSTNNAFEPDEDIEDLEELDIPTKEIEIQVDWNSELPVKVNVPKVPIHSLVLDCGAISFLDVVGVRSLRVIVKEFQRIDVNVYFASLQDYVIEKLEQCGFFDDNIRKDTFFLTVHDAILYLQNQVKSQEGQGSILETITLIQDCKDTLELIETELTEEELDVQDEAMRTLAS
Method: For measurement of Cl^−/HCO3^− exchange activity, intracellular pH (pHi) was measured in WT-pendrin expressing CHO-K1 and HNE cells using pH sensor SNARF5-AM (Molecular Probes). The cells were treated with 5 μM SNARF5-AM for 30 minutes, and then were equipped in a perfusion chamber on the stage of a reverse fluorescence microscope (Nikon, Tokyo, Japan) equipped with a cooled charge-coupled device camera (Zyla sCMOS), image acquisition and analysis software (Meta Imaging Series 7.7). The cells were perfused with a HCO3^− buffer solution containing 120 NaCl, 5 KCl, 1 MgCl2, 1 CaCl2, 10 D-glucose, 5 HEPES, and 25 NaHCO3 (pH 7.4) (mM). To measure the Cl^−/HCO3^− exchange activity, the HCO3^− buffer solution was changed to Cl^−-free HCO3^− buffer solution. When external Cl^−-free HCO3^− buffer solution is applied, the outflow of Cl^− and inflow of HCO3^− are increased by pendrin. To maintain the pH of the HCO3^− buffer solution, the solution was continuously gas treated with 95% O2 and 5% CO2. SNARF5 fluorescence was recorded at 515±10 nm of the excitation wavelength and 640±10 nm of the emission wavelength, and intracellular pH calibration was performed with a solution including 145 mM KCl, 10 mM HEPES and […] nigericin having a calibrated pH to 6.2-7.6.
When the CHO-K1 cells overexpressing WT-pendrin and iodine sensitive YFP are treated with a high concentration Cl^− solution, Cl^− moves to the cells and HCO3^− moves outside of the cells, and this change induces acidification of intracellular pH with reduction of YFP fluorescence.

[2] = target: T1, human wild-type (WT)-pendrin; experiment: Pendrin-mediated Cl^−/OH^− exchange activity in CHO-K1 cells; assay type: cell-based
Method: For measurement of Cl^−/OH^− exchange activity, intracellular pH (pHi) was measured in WT-pendrin expressing CHO-K1 and HNE cells using pH sensor SNARF5-AM (Molecular Probes). The cells were treated with 5 μM SNARF5-AM for 30 minutes, and then were equipped in a perfusion chamber on the stage of a reverse fluorescence microscope (Nikon, Tokyo, Japan) equipped with a cooled charge-coupled device camera (Zyla sCMOS), image acquisition and analysis software (Meta Imaging Series 7.7). To measure the Cl^−/OH^− exchange activity, HEPES buffer solution was changed to CV-free HEPES buffer solution for generation of an Cl^− gradient driving Cl^− outflow and OH^− inflow of cytosol by pendrin.

Structure (SMILES): CC(C)(C)c1ccc(C2=NC(=Cc3cccs3)C(=O)O2)cc1 [F56, 2-(4-(tert-butyl)phenyl)-4-(thiophen-2-ylmethylene)oxazol-5(4H)-one]
- inhibition of pendrin Cl^−/HCO3^− exchange activity [1]: significantly inhibited; also recorded: strongly inhibited
- IC50 ([1]; FIG. 4(a), read-out: 50% inhibition of Cl^−/HCO3^− exchange activity): ~10 µM
- inhibition of pendrin Cl^−/OH^− exchange activity [2]: strongly inhibited

Structure (SMILES): CC(C)(C)c1ccc(C2=NC(=Cc3ccc[nH]3)C(=O)O2)cc1 [F10, 4-((1H-pyrrol-2-yl)methylene)-2-(4-(tert-butyl)phenyl)oxazol-5 (4H)-one]
- inhibition of pendrin Cl^−/HCO3^− exchange activity [1]: strongly inhibit
- inhibition of pendrin Cl^−/OH^− exchange activity [2]: strongly inhibit
